Broadly, the ED50 is the midpoint of the dose-response relation. The low end stands for greater potency, the high end for weaker potency.

Here are results for 1 compound from patent publication US5885994A, “Tetrahydroquinoxaline dopamine D4 receptor antagonists” (Warner-Lambert Company, priority 1998, dated 1999).

Structures are written as SMILES.

In the assay the test system is locomotor activity. As to the kind of experiment: Behavioral activity (locomotor activity) in the Omnitech Digiscan Animal Activity Monitors. Type of assay: in vivo, mice and rats. As to the method: PROTOCOL FOR THE BEHAVIORAL ACTIVITY ASSESSMENT OF MICE AND RATS IN THE OMNITECH DIGISCAN ANIMAL ACTIVITY MONITORS
The purpose of this test is to evaluate compounds for antipsychotic-like central nervous system (CNS) effects and a variety of other behavioral effects generally associated with CNS activity. […] Generally, however, drug effects on behavior are assessed using total distance traveled (in cm) as the most accurate measure of locomotor activity.
Male CD-1 albino mice weighing 20 to 40 g (Charles River Laboratories) or male Sprague-Dawley rats weighing 150 to 300 g (Harlan Laboratories) are used for these studies. […] Drug doses are expressed as the active moiety (taking into account the salt vs free base molecular weight of the drug). […]
Once the animal is placed in the activity chamber, the chambers are individually activated to begin collecting data. Activity levels are generally monitored with the overhead lights turned off, as the dark-stimulation tends to produce less variation in the data. […]
Data can be expressed as either actual counts, time (in sec), centimeters traveled, or percent inhibition of activity relative to vehicle-treated control animals tested concurrently. Significant changes in activity (i.e., cm traveled), relative to controls, are determined by t-test or analysis of variance and Newman-Keul's multiple-range test. […]

For `Cc1ccc(N2CCN(Cc3ccc4c(c3)NCCN4)CC2)cc1C` [Example 2, 6-[4-(3,4-Dimethylphenyl)piperazin-1-ylmethyl]-1,2,3,4-tetrahydroquinoxaline], the “Omnitech Digiscan Activity Monitor test (result in words)” value (1, 3, 10, 30 mg/kg IP) is “dose-dependent decrease”. Besides, the ED50 (Mus musculus, ip) is 16.5 mg/kg.
